This is an account of results in US8222260B2, “Substituted 6-anilinopurine derivatives as inhibitors of cytokinin oxidase/dehydrogenase and preparations containing these derivatives” (Univerzita Palackego V Olomouci, priority 2007, dated 2012).

Structures are written as SMILES.

One experiment has as its target T1, recombinant AtCKX2 (Arabidopsis thaliana, UniProt Q9FUJ3).
T1 sequence (Q9FUJ3 23-501): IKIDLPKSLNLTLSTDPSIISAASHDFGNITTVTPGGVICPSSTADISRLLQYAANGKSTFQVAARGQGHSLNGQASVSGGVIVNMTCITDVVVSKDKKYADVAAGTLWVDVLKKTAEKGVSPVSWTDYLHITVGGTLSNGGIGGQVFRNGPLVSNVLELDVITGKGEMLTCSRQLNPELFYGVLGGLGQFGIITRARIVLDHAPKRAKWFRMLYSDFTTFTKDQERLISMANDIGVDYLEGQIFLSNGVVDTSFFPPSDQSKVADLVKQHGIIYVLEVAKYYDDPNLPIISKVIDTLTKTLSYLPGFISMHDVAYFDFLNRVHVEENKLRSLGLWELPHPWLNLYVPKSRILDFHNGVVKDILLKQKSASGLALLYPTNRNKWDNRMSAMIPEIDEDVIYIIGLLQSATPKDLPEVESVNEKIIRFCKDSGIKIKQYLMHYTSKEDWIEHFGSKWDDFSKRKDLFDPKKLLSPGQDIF
Kind of experiment: Inhibition of cytokinin oxidase/dehydrogenase activity (PMS/MTT microtitre plate assay). Conditions: 30 μM iP as substrate, pH 7.4, 37° C.; means of three replicates; read-out: IC50, inhibition of recombinant AtCKX2. The experiment is classed as biochemical. How it is done:
IC50 determinations were done using the assay in microtitre plate. Each well contained 100 μL of PMS/MTT [phenazine methosulfate/3-(4,5-dimethylthiazol-2-yl)-2,5-diphenyltetrazolium bromide] reaction mixture (final concentrations: 0.1 M KH2PO4, pH 7.4, 1 mM MTT, 0.2 mM PMS) containing the tested compound (3×10^−7 M-3×10^−4 M) and 30 μM N^6-isopentenyladenine (iP) as a substrate. 100 μL of cell-free growth medium of S. cerevisiae strain 23344c ura^− harboring the plasmid pYES2-AtCKX2 was directly used as a source of AtCKX2. Plates were incubated in the dark for […] at 37° C. and the enzymatic reaction was stopped by 25 μL of 35% acetic acid. The absorbance at 578 nm was measured using spectrophotometer Tecan. Absorbance of the sample without iP was subtracted.
The IC50 value, the compound concentration that inhibits the enzyme activity to 50%, was calculated from the obtained dose response curves. The values shown in Table 9 are means of three replicates and the entire test was repeated at least twice.
In general terms: Formazan colour is commonly taken as a measure of viable cells.

The next experiment concerns the target CRE1/AHK4 (Arabidopsis thaliana, UniProt Q9C5U0). In words: Activation of cytokinin receptors (E. coli KMI001 beta-galactosidase reporter). Conditions: 17 h incubation; n.a. means no activation. It is filed as cell-based. The method, boiled down: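 E. coli KMI001 carrying the receptor plasmid was grown in M9 + 0.1% casamino acids at 25 °C, diluted 1:600 and treated with compound (stock solutions 10^-7–5×10^-5 M). Supernatant β-galactosidase was read by 4-methylumbelliferyl galactoside hydrolysis (1 h, 37 °C, Na2CO3 stop). EC50 came from dose-response curves, triplicate means.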

Experiment [1] relates to cytokinin-dependent tobacco callus Nicotiana tabacum L. cv. Wisconsin 38. In words: Tobacco callus biotest (plant cell division). The experiment is classed as cell-based. Conditions: at the concentration with highest activity, relative to 10^−5 M kinetin.

Sequence of CRE1/AHK4 (Q9C5U0 whole entry): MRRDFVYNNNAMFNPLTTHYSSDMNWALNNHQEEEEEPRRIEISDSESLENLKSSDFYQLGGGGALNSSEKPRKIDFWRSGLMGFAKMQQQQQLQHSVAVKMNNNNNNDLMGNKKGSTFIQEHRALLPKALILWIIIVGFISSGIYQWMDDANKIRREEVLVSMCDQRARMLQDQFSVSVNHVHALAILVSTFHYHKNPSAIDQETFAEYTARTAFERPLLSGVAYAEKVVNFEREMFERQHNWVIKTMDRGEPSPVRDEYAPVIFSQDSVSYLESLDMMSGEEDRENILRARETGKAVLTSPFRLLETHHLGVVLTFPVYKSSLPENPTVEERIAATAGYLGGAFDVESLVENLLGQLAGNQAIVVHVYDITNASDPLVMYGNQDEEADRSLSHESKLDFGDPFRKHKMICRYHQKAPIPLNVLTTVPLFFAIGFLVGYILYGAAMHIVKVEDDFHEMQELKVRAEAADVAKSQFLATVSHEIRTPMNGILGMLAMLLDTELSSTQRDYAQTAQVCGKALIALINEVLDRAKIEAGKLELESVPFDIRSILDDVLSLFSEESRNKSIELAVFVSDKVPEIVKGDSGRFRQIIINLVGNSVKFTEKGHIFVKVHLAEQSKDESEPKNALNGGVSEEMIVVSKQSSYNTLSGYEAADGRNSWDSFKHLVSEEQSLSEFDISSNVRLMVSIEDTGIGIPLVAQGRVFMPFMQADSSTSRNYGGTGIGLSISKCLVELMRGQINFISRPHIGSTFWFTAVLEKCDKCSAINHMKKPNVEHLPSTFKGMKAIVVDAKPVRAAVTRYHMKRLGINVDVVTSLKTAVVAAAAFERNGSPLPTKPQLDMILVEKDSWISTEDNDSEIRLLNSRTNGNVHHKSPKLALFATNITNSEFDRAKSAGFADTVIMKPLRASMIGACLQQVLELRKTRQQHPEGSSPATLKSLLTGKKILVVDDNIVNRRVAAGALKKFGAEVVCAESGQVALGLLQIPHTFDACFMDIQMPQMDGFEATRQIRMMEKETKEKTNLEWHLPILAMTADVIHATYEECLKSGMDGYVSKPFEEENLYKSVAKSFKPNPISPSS

The IC50 is the point on the concentration scale where inhibition reaches its midpoint. For `Clc1nc(Nc2ccccc2)c2[nH]cnc2n1` [Compound 1, 2-Chloro-6-anilinopurine], the 50% inhibitory concentration (IC50) on recombinant AtCKX2 is 22.6 µM.

What is called EC50 is the midpoint of the concentration-response curve. Read a low EC50 as a more potent agent. `Clc1cccc(Nc2nc(Cl)nc3nc[nH]c23)c1` [Compound 3, 2-Chloro-6-(3-chloroanilino)purine]: the IC50 on recombinant AtCKX2 was 6.3 µM. At CRE1/AHK4, this compound came in with an EC50 of 7.5 µM. In addition, the “Activity (%) [10^−5 mol · l^−1 K = 100%]” value in experiment [1] worked out at 110%.

Consider `Clc1ccc(Nc2nc(Cl)nc3[nH]cnc23)cc1` [Compound 4], for which the IC50 on recombinant AtCKX2 is 24.1 µM. For the same compound, the “Activity (%) [10^−5 mol · l^−1 K = 100%]” value in experiment [1] turned out to be 102%.

In the case of `Fc1cccc(Nc2nc(Cl)nc3nc[nH]c23)c1` [Compound 6, 2-Chloro-6-(3-fluoroanilino)purine], at recombinant AtCKX2, the half-maximal inhibitory concentration (IC50) was 12.2 µM. Moreover, in experiment [1], the “Activity (%) [10^−5 mol · l^−1 K = 100%]” value was determined as 119.7%.

For `Oc1cccc(Nc2nc(Cl)nc3nc[nH]c23)c1` [Compound 9, 2-Chloro-6-(3-hydroxyanilino)purine], the IC50 at recombinant AtCKX2 was found to be 3.5 µM. Further, a half-maximal effect on CRE1/AHK4 (EC50) was put at 37.1 µM. In experiment [1], the “Activity (%) [10^−5 mol · l^−1 K = 100%]” value is given as 116.2%.

For the compound `COc1cccc(Nc2nc(Cl)nc3nc[nH]c23)c1` [Compound 12, 2-Chloro-6-(3-methoxyanilino)purine], the IC50 at recombinant AtCKX2 came out at 0.8 µM. The same compound registered an EC50 on CRE1/AHK4 of 31.3 µM. The “Activity (%) [10^−5 mol · l^−1 K = 100%]” value in experiment [1] is reported as 122%.

`Fc1nc(Nc2ccccc2)c2nc[nH]c2n1` [Compound 40]: at CRE1/AHK4, a half-maximal response (EC50) required 46.2 µM. In addition, the “Activity (%) [10^−5 mol · l^−1 K = 100%]” value in experiment [1] worked out at 108.1%.

Regarding `Fc1nc(Nc2cccc(Cl)c2)c2nc[nH]c2n1` [Compound 42], the half-maximal inhibitory concentration (IC50) at recombinant AtCKX2 is 15.3 µM. Further, the EC50 on CRE1/AHK4 worked out at 21 µM. For the same compound, the “Activity (%) [10^−5 mol · l^−1 K = 100%]” value in experiment [1] is on record as 121%.

For `Oc1cccc(Nc2nc(F)nc3[nH]cnc23)c1` [Compound 48], the IC50 at recombinant AtCKX2 was determined as 11.8 µM. Besides, on CRE1/AHK4, a half-maximal response (EC50) required 49.6 µM. The “Activity (%) [10^−5 mol · l^−1 K = 100%]” value in experiment [1] is 104.2%.

Take `COc1cccc(Nc2nc(F)nc3nc[nH]c23)c1` [Compound 51, 2-Fluoro-6-(3-methoxyanilino)purine]: on recombinant AtCKX2, the IC50 worked out at 0.4 µM. The compound further gave a concentration giving a half-maximal response (EC50) at CRE1/AHK4 of 43 µM. In experiment [1], the “Activity (%) [10^−5 mol · l^−1 K = 100%]” value came to 120.5%.

Turning to `Nc1nc(Nc2cccc(Cl)c2)c2nc[nH]c2n1` [Compound 66], at recombinant AtCKX2, the half-inhibitory concentration (IC50) came to 25.6 µM.

As to `Nc1nc(Nc2cccc(O)c2)c2nc[nH]c2n1` [Compound 72], on CRE1/AHK4, the EC50 was greater than 50 µM.

As for `Fc1cccc(Nc2nc(S)nc3[nH]cnc23)c1` [Compound 83], the IC50 on recombinant AtCKX2 was 22.6 µM. The “Activity (%) [10^−5 mol · l^−1 K = 100%]” value in experiment [1] is 102.5%.

`c1coc(CNc2ncnc3nc[nH]c23)c1` [Kinetin, 6-furfurylaminopurine, reference compound]: the “Activity (%) [10^−5 mol · l^−1 K = 100%]” value in experiment [1] is on record as 100%.
